Series [1] deals with Mus musculus. Description: Net log cell kill was determined after injecting 2.5 mg/kg intraperitoneally in CD2F1 mice. It is filed as functional. The following applies: route intraperitoneal.
The test system of series [2] is Mus musculus. Description: Toxicity day survivors was determined by the ratio of animals survived to that of test animals at 40 mg/kg intraperitoneally in CD2F1 mice; 0/6. It is filed as organism-based. Also on record: dose 40 mg/kg, route intraperitoneal. The following applies: in vivo, ip.
For series [3], the system named is Mus musculus. Description: (§1) Body weight change of test animals to that of control was determined after injection at 2.5 mg/kg intraperitoneally in CD2F1 mice. Type of series: ADME, organism-based. Also on record: dose 2.5 mg/kg, route intraperitoneal. Particulars: in vivo, ip.
Series [4] has as its system Mus musculus. Description: Toxicity day survivors was determined by the ratio of animals survived to that of test animals at 2.5 mg/kg intraperitoneally in CD2F1 mice; 6/6. Type of series: organism-based. Particulars: in vivo, ip. Details: dose 2.5 mg/kg, route intraperitoneal.
In series [5] the test system is Mus musculus. The series is described as §1. Type of series: functional. Particulars: route intraperitoneal.
Series [6] concerns Mus musculus. Description: Toxicity day survivors was determined by the ratio of animals survived to that of test animals at 10 mg/kg intraperitoneally in CD2F1 mice; 6/6. It is filed as organism-based. Details: dose 10 mg/kg, route intraperitoneal. Particulars: in vivo, ip.
Series [7] has as its system Mus musculus. Description: Ratio of treated to that of untreated tumor-bearing control animals at 10 mg/kg intraperitoneally in CD2F1 mice was determined. Type of series: functional. The following applies: route intraperitoneal.
Series [8] deals with Mus musculus. Description: Ratio of treated to that of untreated tumor-bearing control animals at 2.5 mg/kg intraperitoneally in CD2F1 mice was determined. It is filed as functional. The following applies: route intraperitoneal.
Series [9] has as its system Mus musculus. Description: Net log cell kill was determined after injecting 5 mg/kg intraperitoneally in CD2F1 mice. Particulars: route intraperitoneal. Type of series: functional.
For series [10], the system named is Mus musculus. Description: Toxicity day survivors was determined by the ratio of animals survived to that of test animals at 5 mg/kg intraperitoneally in CD2F1 mice; 6/6. Type of series: organism-based. Details: dose 5 mg/kg, route intraperitoneal. The following applies: in vivo, ip.
In series [11] the test system is Mus musculus. Description: Body weight change of test animals to that of control was determined after injection at 20 mg/kg intraperitoneally in CD2F1 mice. Type of series: functional. Particulars: route intraperitoneal.
Series [12] has as its system Mus musculus. Description: Net log cell kill was determined after injecting 10 mg/kg intraperitoneally in CD2F1 mice. It is filed as functional. The following applies: route intraperitoneal.
Series [13] concerns Mus musculus. Description: Toxicity day survivors was determined by the ratio of animals survived to that of test animals at 20 mg/kg intraperitoneally in CD2F1 mice; 6/6. It is filed as organism-based. Details: dose 20 mg/kg, route intraperitoneal. The following applies: in vivo, ip.
The test system of series [14] is Mus musculus. Description: Ratio of treated to that of untreated tumor-bearing control animals at 5 mg/kg intraperitoneally in CD2F1 mice was determined. Type of series: functional. Particulars: route intraperitoneal.
The test system of series [15] is Mus musculus. Description: Body weight change of test animals to that of control was determined after injection at 10 mg/kg intraperitoneally in CD2F1 mice. Type of series: functional. The following applies: route intraperitoneal.
For series [16], the system named is Mus musculus. Description: Body weight change of test animals to that of control was determined after injection at 5 mg/kg intraperitoneally in CD2F1 mice. It is filed as functional. The following applies: route intraperitoneal.

Take `CNC(=O)OCc1c(COC(=O)NC)c2n(c1C)-c1ccccc1CCC2`: the KE in the series with Mus musculus [1] was found to be 1.19; with Mus musculus [9], 0.55; in the series with Mus musculus [12], 1. For the same compound, the TDS in the series on Mus musculus [2] was 0; in the series with Mus musculus [3], 6; in the series on Mus musculus [4], 6; with Mus musculus [6] it was 6; in the series on Mus musculus [10] it was 6; in the series on Mus musculus [13], 6. Also, the T-C is reported as -1.7 g in the series on Mus musculus [5], -2.6 g in the series on Mus musculus [11], -2.2 g with Mus musculus [15] and -0.9 g with Mus musculus [16]. Also, the T/C with Mus musculus [7] was determined as 152%; with Mus musculus [8], 154%; in the series with Mus musculus [14], 147%.

(Values after ChEMBL document CHEMBL1124001, “Synthesis and antileukemic activity of bis[[(carbamoyl)oxy]methyl]- substituted pyrrolo[2,1-a]isoquinolines, pyrrolo[1,2-a]quinolines, pyrrolo[2,1-a]isobenzazepines, and pyrrolo[1,2-a]benzazepines” (J Med Chem, 1988).)
